# Laboratory results as given in US9707229B2, “Compositions and methods for treating an infection” (CMPD LICENSING, LLC, priority 2015, dated 2017).
# Tests used:
# Assay type in all cases: cell-based
# Bordetella pertussis = assay: Expected efficacy of antibiotic agents; details: Gram: neg
# Enterobacter sakazakii = assay: Expected efficacy of antibiotic agents; details: Gram: neg
# Brucella species = details: expected efficacy; Gram: neg
# Proteus mirabilis = assay: Expected efficacy of antibiotic agents; details: Gram: neg
# [1] = tested on: Staphylococcus aureus (MSSA); assay: Expected efficacy of antibiotic agents; details: Gram: pos
# [2] = tested on: Acinetobacter calcoaceticus; assay: Expected efficacy of antibiotic agents; details: Gram: neg
# Citrobacter freundii = assay: Expected efficacy of antibiotic agents; details: Gram: neg
# Rickettsiae = details: expected efficacy; Gram: neg
# Campylobacter jejuni = assay: Expected efficacy of antibiotic agents; details: Gram: neg
# Enterococcus faecium = assay: Expected efficacy of antibiotic agents; details: Gram: pos
# Francisella tularensis = details: expected efficacy; Gram: neg
# Bartonella bacilliformis = assay: Expected efficacy of antibiotic agents; details: Gram: neg
# [3] = tested on: Klebsiella (Calymmatobacterium) granulomatis; assay: Expected efficacy of antibiotic agents; details: Gram: neg
# Klebsiella pneumoniae = assay: Expected efficacy of antibiotic agents; details: Gram: neg
# Moraxella catarrhalis = assay: Expected efficacy of antibiotic agents; details: Gram: neg
# Klebsiella oxytoca = assay: Expected efficacy of antibiotic agents; details: Gram: neg
# Proteus vulgaris = assay: Expected efficacy of antibiotic agents; details: Gram: neg
# Mycoplasma pneumoniae = assay: Expected efficacy of antibiotic agents; details: Gram: n/a
# Morganella morganii = assay: Expected efficacy of antibiotic agents; details: Gram: neg
# Escherichia coli = assay: Expected efficacy of antibiotic agents; details: Gram: neg
# Corynebacterium jeikeium = assay: Expected efficacy of antibiotic agents; details: Gram: pos
# Enterococcus faecalis = assay: Expected efficacy of antibiotic agents; details: Gram: pos
# Acinetobacter baumannii = assay: Expected efficacy of antibiotic agents; details: Gram: neg
# Providencia rettgeri = assay: Expected efficacy of antibiotic agents; details: Gram: neg
# Haemophilus influenzae = assay: Expected efficacy of antibiotic agents; details: Gram: neg
# Acinetobacter lwoffii = assay: Expected efficacy of antibiotic agents; details: Gram: neg
# Enterobacter cloacae = assay: Expected efficacy of antibiotic agents; details: Gram: neg
# Enterobacter aerogenes = assay: Expected efficacy of antibiotic agents; details: Gram: neg
# Clostridium perfringens = details: expected efficacy; Gram: anaer
# Clostridium difficile = assay: Expected efficacy of antibiotic agents; details: Gram: anaer
# [4] = tested on: Staphylococcus epidermidis; assay: Expected efficacy of antibiotic agents; details: Gram: pos
# Legionella pneumophila = details: expected efficacy; Gram: neg
# Pseudomonas fluorescens = assay: Expected efficacy of antibiotic agents; details: Gram: neg
# Neisseria meningitidis = assay: Expected efficacy of antibiotic agents; details: Gram: neg
# [5] = tested on: Methicillin resistant staph aureus (MRSA); assay: Expected efficacy of antibiotic agents; details: Gram: pos
# Streptococcus pyogenes = assay: Expected efficacy of antibiotic agents; details: Gram: pos
# Pseudomonas aeruginosa = assay: Expected efficacy of antibiotic agents; details: Gram: neg
# Chlamydia pneumoniae = assay: Expected efficacy of antibiotic agents; details: Gram: n/a
# Citrobacter diversus = assay: Expected efficacy of antibiotic agents; details: Gram: neg
# Vibrio cholerae = assay: Expected efficacy of antibiotic agents; details: Gram: neg
# Chlamydia trachomatis = assay: Expected efficacy of antibiotic agents; details: Gram: n/a
# Chlamydia psittaci = details: expected efficacy; Gram: n/a
# Streptococcus pneumoniae = assay: Expected efficacy of antibiotic agents; details: Gram: pos
# Providencia stuartii = assay: Expected efficacy of antibiotic agents; details: Gram: neg
# Streptococcus agalactiae = assay: Expected efficacy of antibiotic agents; details: Gram: pos
# Bacteroides fragilis = assay: Expected efficacy of antibiotic agents; details: Gram: anaer
# Serratia marcescens = assay: Expected efficacy of antibiotic agents; details: Gram: neg
# Candida species = assay: Expected efficacy of antifungal agents
structure (smiles),measurement,setting,value
CC[C@H]1OC(=O)[C@H](C)[C@@H](O[C@H]2C[C@@](C)(OC)[C@@H](O)[C@H](C)O2)[C@H](C)[C@@H](O[C@@H]2O[C@H](C)C[C@H](N(C)C)[C@H]2O)[C@](C)(O)C[C@@H](C)CN(C)[C@H](C)[C@@H](O)[C@]1(C)O [Azithromycin],efficacy against Bordetella pertussis,Bordetella pertussis,yes
same,efficacy against Enterobacter sakazakii,Enterobacter sakazakii,no
same,efficacy against Brucella species,Brucella species,no
same,efficacy against Proteus mirabilis,Proteus mirabilis,no
same,efficacy against Staphylococcus aureus (MSSA),[1],yes
same,efficacy against Acinetobacter calcoaceticus,[2],no
same,efficacy against Citrobacter freundii,Citrobacter freundii,no
same,efficacy against Rickettsiae,Rickettsiae,yes
same,efficacy against Campylobacter jejuni,Campylobacter jejuni,yes
same,efficacy against Enterococcus faecium,Enterococcus faecium,no
same,efficacy against Francisella tularensis,Francisella tularensis,no
same,efficacy against Bartonella bacilliformis,Bartonella bacilliformis,yes
same,efficacy against Klebsiella (Calymmatobacterium) granulomatis,[3],no
same,efficacy against Klebsiella pneumoniae,Klebsiella pneumoniae,no
same,efficacy against Moraxella catarrhalis,Moraxella catarrhalis,yes
same,efficacy against Klebsiella oxytoca,Klebsiella oxytoca,no
same,efficacy against Proteus vulgaris,Proteus vulgaris,no
same,efficacy against Mycoplasma pneumoniae,Mycoplasma pneumoniae,yes
same,efficacy against Morganella morganii,Morganella morganii,no
same,efficacy against Escherichia coli,Escherichia coli,no
same,efficacy against Corynebacterium jeikeium,Corynebacterium jeikeium,no
same,efficacy against Enterococcus faecalis,Enterococcus faecalis,no
same,efficacy against Acinetobacter baumannii,Acinetobacter baumannii,no
same,efficacy against Providencia rettgeri,Providencia rettgeri,no
same,efficacy against Haemophilus influenzae,Haemophilus influenzae,yes
same,efficacy against Acinetobacter lwoffii,Acinetobacter lwoffii,no
same,efficacy against Enterobacter cloacae,Enterobacter cloacae,no
same,efficacy against Enterobacter aerogenes,Enterobacter aerogenes,no
same,efficacy against Clostridium perfringens,Clostridium perfringens,no
same,efficacy against Clostridium difficile,Clostridium difficile,no
same,efficacy against Staphylococcus epidermidis,[4],yes
same,efficacy against Legionella pneumophila,Legionella pneumophila,yes
same,efficacy against Pseudomonas fluorescens,Pseudomonas fluorescens,no
same,efficacy against Neisseria meningitidis,Neisseria meningitidis,yes
same,efficacy against Methicillin resistant staph aureus (MRSA),[5],no
same,efficacy against Streptococcus pyogenes,Streptococcus pyogenes,yes
same,efficacy against Pseudomonas aeruginosa,Pseudomonas aeruginosa,no
same,efficacy against Chlamydia pneumoniae,Chlamydia pneumoniae,yes
same,efficacy against Citrobacter diversus,Citrobacter diversus,no
same,efficacy against Vibrio cholerae,Vibrio cholerae,yes
same,efficacy against Chlamydia trachomatis,Chlamydia trachomatis,yes
same,efficacy against Chlamydia psittaci,Chlamydia psittaci,yes
same,efficacy against Streptococcus pneumoniae,Streptococcus pneumoniae,yes
same,efficacy against Providencia stuartii,Providencia stuartii,no
same,efficacy against Streptococcus agalactiae,Streptococcus agalactiae,yes
same,efficacy against Bacteroides fragilis,Bacteroides fragilis,no
same,efficacy against Serratia marcescens,Serratia marcescens,no
C[C@@H]1[C@H](O)[C@@H](C)/C=C/C=C/CC/C=C/C=C/C=C/C=C/C(O[C@H]2O[C@H](C)[C@@H](O)[C@H](N)[C@@H]2O)CC2O[C@](O)(CC(O)C(O)CCC(O)CC(O)CC(O)CC(=O)O[C@H]1C)CC(O)C2C(=O)O (stereo partly drawn) [Nystatin],efficacy against Candida species,Candida species,yes
